Data from patent US20260028321A1, “1,3,4-OXADIAZOLE DERIVATIVE COMPOUNDS AS HISTONE DEACETYLASE 6 INHIBITOR, AND USES THEREOF” (CHONG KUN DANG PHARMACEUTICAL CORP., priority 2022, published 2026).

What was measured:
[1] = biological target: HDAC6 human recombinant (Homo sapiens (Human), UniProt Q9UBN7); experiment: HDAC6 enzyme activity inhibition assay (fluorimetric); assay type: biochemical; conditions: test substance 0.1-1000 nM; 37° C. 60 minutes, developer 30 minutes; fluorescence Ex 390, Em 460
Chain of HDAC6 human recombinant (Q9UBN7 whole entry): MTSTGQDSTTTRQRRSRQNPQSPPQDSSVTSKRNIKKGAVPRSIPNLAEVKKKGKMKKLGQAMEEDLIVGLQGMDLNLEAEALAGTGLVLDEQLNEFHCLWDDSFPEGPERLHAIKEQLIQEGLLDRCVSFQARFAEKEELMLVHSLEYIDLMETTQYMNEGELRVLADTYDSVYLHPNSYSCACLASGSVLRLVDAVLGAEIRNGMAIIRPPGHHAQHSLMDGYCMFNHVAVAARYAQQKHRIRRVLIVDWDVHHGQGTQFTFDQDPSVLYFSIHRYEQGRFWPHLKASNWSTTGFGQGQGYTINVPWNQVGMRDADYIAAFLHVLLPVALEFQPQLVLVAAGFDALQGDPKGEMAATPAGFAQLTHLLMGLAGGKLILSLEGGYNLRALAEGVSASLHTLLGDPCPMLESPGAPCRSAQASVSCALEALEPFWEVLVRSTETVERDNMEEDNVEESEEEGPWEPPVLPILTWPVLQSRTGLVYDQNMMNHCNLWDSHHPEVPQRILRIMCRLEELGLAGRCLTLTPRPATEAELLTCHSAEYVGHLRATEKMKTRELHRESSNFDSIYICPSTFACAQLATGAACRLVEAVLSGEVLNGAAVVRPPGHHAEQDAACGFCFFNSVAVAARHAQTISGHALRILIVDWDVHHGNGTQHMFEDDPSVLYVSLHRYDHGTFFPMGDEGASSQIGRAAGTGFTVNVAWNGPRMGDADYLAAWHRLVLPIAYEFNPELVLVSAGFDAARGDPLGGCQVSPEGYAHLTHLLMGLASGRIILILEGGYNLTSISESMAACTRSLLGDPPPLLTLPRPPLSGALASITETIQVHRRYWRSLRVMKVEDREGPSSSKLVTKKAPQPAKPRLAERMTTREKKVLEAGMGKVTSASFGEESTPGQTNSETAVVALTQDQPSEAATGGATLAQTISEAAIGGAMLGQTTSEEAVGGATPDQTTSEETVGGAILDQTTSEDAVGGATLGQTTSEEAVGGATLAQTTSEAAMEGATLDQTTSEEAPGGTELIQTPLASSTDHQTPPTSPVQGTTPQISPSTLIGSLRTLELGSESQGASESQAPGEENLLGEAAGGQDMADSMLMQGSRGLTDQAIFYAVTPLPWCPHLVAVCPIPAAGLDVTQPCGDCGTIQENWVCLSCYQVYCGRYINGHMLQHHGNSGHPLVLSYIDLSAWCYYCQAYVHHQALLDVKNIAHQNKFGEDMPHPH
Method: (§1) The HDAC enzyme inhibition ability of the test substance was measured using the HDAC1 Fluorimetric Drug Discovery Assay Kit (Enzo life sciences: BML-AK511) and the HDAC6 human recombinant (Calbiochem: 382180). In the HDAC1 assay, the test substance was treated at concentrations of 100, 1000, and 10000 nM, and in the HDAC6 assay, the test substance was treated at concentrations of 0.1, 1, 10, 100, and 1000 nM. After sample treatment, the samples were reacted at 37° C. for 60 minutes, followed by reaction at 37° C. for 30 minutes by treatment with a developer, and fluorescence intensities (Ex 390, Em 460) thereof were measured using FlexStatin3 (Molecular device).

[2] = biological target: HDAC1 (Homo sapiens (Human), UniProt Q13547); experiment: HDAC1 enzyme activity inhibition assay (HDAC1 Fluorimetric Drug Discovery Assay Kit); assay type: biochemical; conditions: test substance 100, 1000, 10000 nM; 37° C. 60 minutes, developer 30 minutes; fluorescence Ex 390, Em 460
Chain of HDAC1 (Q13547 whole entry): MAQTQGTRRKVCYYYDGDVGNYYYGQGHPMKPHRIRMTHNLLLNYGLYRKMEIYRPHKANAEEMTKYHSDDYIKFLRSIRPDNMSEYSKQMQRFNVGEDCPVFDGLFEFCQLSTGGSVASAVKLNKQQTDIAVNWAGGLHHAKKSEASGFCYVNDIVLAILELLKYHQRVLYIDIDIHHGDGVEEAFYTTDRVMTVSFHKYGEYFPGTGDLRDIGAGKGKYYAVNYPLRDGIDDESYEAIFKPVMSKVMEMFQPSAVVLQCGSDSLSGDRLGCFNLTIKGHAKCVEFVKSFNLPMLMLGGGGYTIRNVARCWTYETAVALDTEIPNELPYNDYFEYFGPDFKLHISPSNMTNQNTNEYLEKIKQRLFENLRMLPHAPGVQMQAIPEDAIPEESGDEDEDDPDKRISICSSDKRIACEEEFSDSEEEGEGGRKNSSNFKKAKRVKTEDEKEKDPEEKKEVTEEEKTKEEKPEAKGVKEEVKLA
Method: as §1

Compound: CN1CCN(c2c(N(Cc3ccc(-c4nnc(C(F)F)o4)cc3F)c3ccccc3)c(=O)c2=O)CC1 [Compound 1, 3-((4-(5-(difluoromethyl)-1,3,4-oxadiazol-2-yl)-2-fluorobenzyl)(phenyl)amino)-4-(4-methylpiperazin-1-yl)cyclobut-3-ene-1,2-dione]
- IC50 [1]: 22 nM
- IC50 [2]: > 10 µM

Compound: O=c1c(N2CCOCC2)c(N(Cc2ccc(-c3nnc(C(F)F)o3)cc2F)c2ccccc2)c1=O [Compound 2, 3-((4-(5-(difluoromethyl)-1,3,4-oxadiazol-2-yl)-2-fluorobenzyl)(phenyl)amino)-4-morpholinocyclobut-3-ene-1,2-dione]
- IC50 [2]: > 10 µM

Compound: O=c1c(N2CCS(=O)(=O)CC2)c(N(Cc2ccc(-c3nnc(C(F)F)o3)cc2F)c2ccccc2)c1=O [Compound 3, 3-((4-(5-(difluoromethyl)-1,3,4-oxadiazol-2-yl)-2-fluorobenzyl)(phenyl)amino)-4-(1,1-dioxidothiomorpholino)cyclobut-3-ene-1,2-dione]
- IC50 [1]: 27 nM
- IC50 [2]: > 10 µM

Compound: CN1CCN(c2c(N(Cc3ccc(-c4nnc(C(F)F)o4)cc3)c3ccccc3)c(=O)c2=O)CC1 [Compound 4, 3-((4-(5-(difluoromethyl)-1,3,4-oxadiazol-2-yl)benzyl)(phenyl)amino)-4-(4-methylpiperazin-1-yl)cyclobut-3-ene-1,2-dione]
- IC50 [1]: 31 nM
- IC50 [2]: > 10 µM

Compound: O=c1c(N2CCS(=O)(=O)CC2)c(N(Cc2ccc(-c3nnc(C(F)F)o3)cc2)c2ccccc2)c1=O [Compound 5, 3-((4-(5-(difluoromethyl)-1,3,4-oxadiazol-2-yl)benzyl)(phenyl)amino)-4-(1,1-dioxidothiomorpholino)cyclobut-3-ene-1,2-dione]
- IC50 [1]: 29 nM
- IC50 [2]: > 10 µM

Compound: O=c1c(N2CCS(=O)(=O)CC2)c(N(Cc2ncc(-c3nnc(C(F)F)o3)cc2F)c2ccccc2)c1=O [Compound 6, 3-(((5-(5-(difluoromethyl)-1,3,4-oxadiazol-2-yl)-3-fluoropyridin-2-yl)methyl)(phenyl)amino)-4-(1,1-dioxidothiomorpholino)cyclobut-3-ene-1,2-dione]
- IC50 [2]: > 10 µM

Compound: CN1CCN(c2c(N(Cc3ccc(-c4nnc(C(F)F)o4)cc3F)c3cc(F)cc(Br)c3)c(=O)c2=O)CC1 [Compound 7, 3-((3-bromo-5-fluorophenyl)(4-(5-(difluoromethyl)-1,3,4-oxadiazol-2-yl)-2-fluorobenzyl)amino)-4-(4-methylpiperazin-1-yl)cyclobut-3-ene-1,2-dione]
- IC50 [1]: 36 nM
- IC50 [2]: > 10 µM

Compound: CN1CCN(c2c(N(Cc3ccc(-c4nnc(C(F)F)o4)cc3F)c3cc(F)cc(-c4cccnc4)c3)c(=O)c2=O)CC1 [Compound 8, 3-((4-(5-(difluoromethyl)-1,3,4-oxadiazol-2-yl)-2-fluorobenzyl)(3-fluoro-5-(pyridin-3-yl)phenyl)amino)-4-(4-methylpiperazin-1-yl)cyclobut-3-ene-1,2-dione]
- IC50 [1]: 35 nM
- IC50 [2]: > 10 µM

Compound: O=c1c(N2CC3(C2)CN(C2COC2)C3)c(N(Cc2ccc(-c3nnc(C(F)F)o3)cc2F)c2ccccc2)c1=O [Compound 10, 3-((4-(5-(difluoromethyl)-1,3,4-oxadiazol-2-yl)-2-fluorobenzyl)(phenyl)amino)-4-(6-(oxetan-3-yl)-2,6-diazaspiro[3.3]heptan-2-yl)cyclobut-3-ene-1,2-dione]
- IC50 [1]: 56 nM
- IC50 [2]: > 10 µM

Compound: CN1CC2(C1)CN(c1c(N(Cc3ccc(-c4nnc(C(F)F)o4)cc3)c3ccccc3)c(=O)c1=O)C2 [Compound 11, 3-((4-(5-(difluoromethyl)-1,3,4-oxadiazol-2-yl)benzyl)(phenyl)amino)-4-(6-methyl-2,6-diazaspyro[3.3]heptan-2-yl)cyclobut-3-ene-1,2-dione]
- IC50 [1]: 60 nM
- IC50 [2]: > 10 µM

Compound: CN1CCN(c2c(N(Cc3ccc(-c4nnc(C(F)F)o4)cc3F)c3cccc(Br)c3)c(=O)c2=O)CC1 [Compound 12, 3-((3-bromophenyl)(4-(5-(difluoromethyl)-1,3,4-oxadiazol-2-yl)-2-fluorobenzyl)amino)-4-(4-methylpiperazin-1-yl)cyclobut-3-ene-1,2-dione]
- IC50 [1]: 30 nM
- IC50 [2]: > 10 µM

Compound: O=c1c(N(Cc2ccc(-c3nnc(C(F)F)o3)cc2F)c2ccccc2)c(N2C[C@@H]3C[C@H]2CN3C2COC2)c1=O [Compound 13, 3-((4-(5-(difluoromethyl)-1,3,4-oxadiazol-2-yl)-2-fluorobenzyl)(phenyl)amino)-4-((1S,4S)-5-(oxetan-3-yl)-2,5-diazabicyclo[2.2.1]heptan-2-yl)cyclobut-3-ene-1,2-dione]
- IC50 [1]: 24 nM
- IC50 [2]: > 10 µM

Compound: CN1C[C@@H]2C[C@H]1CN2c1c(N(Cc2ccc(-c3nnc(C(F)F)o3)cc2F)c2ccccc2)c(=O)c1=O [Compound 14, 3-((4-(5-(difluoromethyl)-1,3,4-oxadiazol-2-yl)-2-fluorobenzyl)(phenyl)amino)-4-((1S,4S)-5-methyl-2,5-diazabicyclo[2.2.1]heptan-2-yl)cyclobut-3-ene-1,2-dione]
- IC50 [2]: > 10 µM

Compound: CN1C[C@@H]2C[C@H]1CN2c1c(N(Cc2ccc(-c3nnc(C(F)F)o3)cn2)c2ccccc2)c(=O)c1=O [Compound 15, 3-(((5-(5-(difluoromethyl)-1,3,4-oxadiazol-2-yl)pyridin-2-yl)methyl)(phenyl)amino)-4-((1S,4S)-5-methyl-2,5-diazabicyclo[2.2.1]heptan-2-yl)cyclobut-3-ene-1,2-dione]
- IC50 [1]: 22 nM
- IC50 [2]: > 10 µM

Compound: CC(C)N1C[C@@H]2C[C@H]1CN2c1c(N(Cc2ccc(-c3nnc(C(F)F)o3)cn2)c2ccccc2)c(=O)c1=O [Compound 16, 3-(((5-(5-(difluoromethyl)-1,3,4-oxadiazol-2-yl)pyridin-2-yl)methyl)(phenyl)amino)-4-((1S,4S)-5-isopropyl-2,5-diazabicyclo[2.2.1]heptan-2-yl)cyclobut-3-ene-1,2-dione]
- IC50 [1]: 28 nM
- IC50 [2]: > 10 µM

Compound: O=c1c(N(Cc2ccc(-c3nnc(C(F)F)o3)cn2)c2ccccc2)c(N2C[C@@H]3C[C@H]2CN3C2COC2)c1=O [Compound 17, 3-(((5-(5-(difluoromethyl)-1,3,4-oxadiazol-2-yl)pyridin-2-yl)methyl)(phenyl)amino)-4-((1S,4S)-5-(oxetan-3-yl)-2,5-diazabicyclo[2.2.1]heptan-2-yl)cyclobut-3-ene-1,2-dione]
- IC50 [1]: 43 nM
- IC50 [2]: > 10 µM

Compound: CN1CCN(c2c(N(Cc3ccc(-c4nnc(C(F)F)o4)cn3)c3cccc(-c4cccnc4)c3)c(=O)c2=O)CC1 [Compound 18, 3-(((5-(5-(difluoromethyl)-1,3,4-oxadiazol-2-yl)pyridin-2-yl)methyl)(3-(pyridin-3-yl)phenyl)amino)-4-(4-methylpiperazin-1-yl)cyclobut-3-ene-1,2-dione]
- IC50 [1]: 51 nM
- IC50 [2]: > 10 µM

Compound: CN1CCN(c2c(N(Cc3ccc(-c4nnc(C(F)F)o4)cn3)c3cccc(-c4ccncc4)c3)c(=O)c2=O)CC1 [Compound 19, 3-(((5-(5-(difluoromethyl)-1,3,4-oxadiazol-2-yl)pyridin-2-yl)methyl)(3-(pyridin-4-y 1)phenyl)amino)-4-(4-methylpiperazin-1-yl)cyclobut-3-ene-1,2-dione]
- IC50 [1]: 102 nM
- IC50 [2]: > 10 µM

Compound: CN1C[C@@H]2C[C@H]1CN2c1c(N(Cc2ncc(-c3nnc(C(F)F)o3)cc2F)c2ccccc2)c(=O)c1=O [Compound 20, 3-(((5-(5-(difluoromethyl)-1,3,4-oxadiazol-2-yl)-3-fluoropyridin-2-yl)methyl)(phenyl)amino)-4-((1S,4S)-5-methyl-2,5-diazabicyclo[2.2.1]heptan-2-yl)cyclobut-3-ene-1,2-dione]
- IC50 [2]: > 10 µM

Compound: O=c1c(N(Cc2ncc(-c3nnc(C(F)F)o3)cc2F)c2ccccc2)c(N2C[C@@H]3C[C@H]2CN3C2COC2)c1=O [Compound 21, 3-(((5-(5-(difluoromethyl)-1,3,4-oxadiazol-2-yl)-3-fluoropyridin-2-yl)methyl)(phenyl)amino)-4-((1S,4S)-5-(oxetan-3-yl)-2,5-diazabicyclo[2.2.1]heptan-2-yl)cyclobut-3-ene-1,2-dione]
- IC50 [2]: > 10 µM

Compound: CN1CCN(c2c(N(Cc3ccc(-c4nnc(C(F)F)o4)cc3F)c3ccc(F)c(F)c3)c(=O)c2=O)CC1 [Compound 22, 3-((4-(5-(difluoromethyl)-1,3,4-oxadiazol-2-yl)-2-fluorobenzyl)(3,4-difluorophenyl)amino)-4-(4-methylpiperazin-1-yl)cyclobut-3-ene-1,2-dione]
- IC50 [1]: 64 nM
- IC50 [2]: > 10 µM

Compound: O=c1c(N2CCN(C3COC3)CC2)c(N(Cc2ccc(-c3nnc(C(F)F)o3)cc2F)c2ccc(F)c(F)c2)c1=O [Compound 23, 3-((4-(5-(difluoromethyl)-1,3,4-oxadiazol-2-yl)-2-fluorobenzyl)(3,4-difluorophenyl)amino)-4-(4-(oxetan-3-yl)piperazin-1-yl)cyclobut-3-ene-1,2-dione]
- IC50 [1]: 50 nM
- IC50 [2]: > 10 µM

Compound: O=c1c(N2CCOCC2)c(N(Cc2ccc(-c3nnc(C(F)(F)F)o3)cc2)c2ccccc2)c1=O [Compound 24, 3-morpholino-4-[N-[[4-[5-(trifluoromethyl)-1,3,4-oxadiazol-2-yl]phenyl]methyl]anilino]cyclobut-3-ene-1,2-dione]
- IC50 [1]: 161 nM
- IC50 [2]: > 10 µM
